# Measurements reported in the supplement of paper PMC10307832.
# Key:
# Experiment in all cases: relative viability (nuclei count vs DMSO), 5 days (fraction); higher = more cells survive
# Carboplatin + Olaparib = compound: C1CC(C1)(C(=O)O)C(=O)O.[NH2-].[NH2-].[Pt+2] [Carboplatin] + O=C(c1cc(Cc2n[nH]c(=O)c3ccccc23)ccc1F)N1CCN(C(=O)C2CC2)CC1 [Olaparib] (partner 8 µM)
# Method in brief: (§1)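 Lung cancer cell lines in 1536-well plates got either a single drug or a fixed anchor-drug dose together with five library-drug doses (not always all listed) in √10 steps, by pin tool, on the day after seeding. Nuclei were counted after 5 days, and relative viability is the treated-to-vehicle ratio of nuclei counts. Values are medians of duplicate plates.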
# Carboplatin + AZD7762 = compound: C1CC(C1)(C(=O)O)C(=O)O.[NH2-].[NH2-].[Pt+2] [Carboplatin] + NC(=O)Nc1cc(-c2cccc(F)c2)sc1C(=O)N[C@H]1CCCNC1 [AZD7762] (partner 0.2 µM)
# Method in brief: as §1
# Carboplatin + Vorinostat = compound: C1CC(C1)(C(=O)O)C(=O)O.[NH2-].[NH2-].[Pt+2] [Carboplatin] + O=C(CCCCCCC(=O)Nc1ccccc1)NO [Vorinostat] (partner 1 µM)
# Method in brief: as §1
# GSK126 + Vorinostat = compound: CC[C@H](C)N1C=C(C2=C(C=C(C=C21)C3=CN=C(C=C3)N4CCNCC4)C(=O)NCC5=C(C=C(NC5=O)C)C)C [GSK126] + O=C(CCCCCCC(=O)Nc1ccccc1)NO [Vorinostat] (partner 1 µM)
# Method in brief: as §1
Cell Line,relative viability (Carboplatin + Olaparib; first compound 0.08 µM),relative viability (Carboplatin + Olaparib; first compound 0.253 µM),relative viability (Carboplatin + Olaparib; first compound 0.8 µM),relative viability (Carboplatin + Olaparib; first compound 2.53 µM),relative viability (Carboplatin + Olaparib; first compound 8 µM),relative viability (Carboplatin + AZD7762; first compound 0.08 µM),relative viability (Carboplatin + AZD7762; first compound 0.253 µM),relative viability (Carboplatin + AZD7762; first compound 0.8 µM),relative viability (Carboplatin + AZD7762; first compound 2.53 µM),relative viability (Carboplatin + AZD7762; first compound 8 µM),relative viability (Carboplatin + Vorinostat; first compound 0.08 µM),relative viability (Carboplatin + Vorinostat; first compound 0.253 µM),relative viability (Carboplatin + Vorinostat; first compound 0.8 µM),relative viability (Carboplatin + Vorinostat; first compound 2.53 µM),relative viability (Carboplatin + Vorinostat; first compound 8 µM),relative viability (GSK126 + Vorinostat; first compound 0.08 µM),relative viability (GSK126 + Vorinostat; first compound 0.253 µM),relative viability (GSK126 + Vorinostat; first compound 0.8 µM),relative viability (GSK126 + Vorinostat; first compound 2.53 µM),relative viability (GSK126 + Vorinostat; first compound 8 µM)
PC-14,0.266,0.266,0.171,0.118,0.0838,0.541,0.316,0.361,0.314,0.202,0.862,0.783,0.582,0.234,0.142,0.768,0.732,0.623,0.745,0.692
HCC-15,0.664,0.729,0.693,0.57,0.492,1.17,1.22,1.16,1.33,0.644,0.923,0.904,0.859,0.743,0.558,0.887,0.756,0.843,0.816,0.714
NCI-H2347,0.55,0.568,0.57,0.546,0.498,0.837,0.741,0.805,0.752,0.798,0.555,0.586,0.646,0.595,0.526,0.659,0.479,0.503,0.601,0.563
LOU-NH91,0.955,0.973,0.873,0.831,0.844,0.824,0.761,0.751,0.764,0.773,1.03,0.937,0.949,0.894,0.734,0.909,0.878,0.781,0.957,0.905
LCLC-103H,0.754,0.783,0.777,0.74,0.754,0.853,0.763,0.802,0.806,0.806,0.804,0.785,0.72,0.768,0.692,0.888,0.906,0.77,0.786,0.761
EMC-BAC-2,0.483,0.484,0.447,0.461,0.385,1.15,0.993,1.11,1.07,0.973,0.664,0.416,0.616,0.536,0.331,0.427,0.4,0.442,0.451,0.499
NCI-H2228,0.927,0.514,0.553,0.645,0.436,,,,,,0.748,0.0948,0.623,0.566,0.343,0.343,0.725,0.644,0.616,0.923
HOP-62,0.391,0.398,0.444,0.506,0.255,0.793,0.665,0.669,0.608,0.497,0.654,0.662,0.635,0.664,0.542,0.725,0.542,0.633,0.646,0.665
NCI-H727,0.75,0.586,0.862,0.646,0.667,0.579,0.461,0.628,0.685,0.639,1.38,1.15,1.17,1.03,0.831,1.45,1.16,1.28,1.1,1.19
COR-L 105,0.766,0.756,0.518,0.544,0.456,,,,,,0.817,0.855,0.92,0.739,0.48,0.963,0.828,0.639,0.826,0.68
NCI-H358,0.713,0.636,0.593,0.498,0.43,0.732,0.514,0.516,0.575,0.561,0.735,0.668,0.681,0.664,0.53,0.767,0.708,0.644,0.68,0.672
SK-MES-1,0.843,0.748,0.646,0.621,0.537,,,,,,1.19,1.06,1.08,1.01,0.961,1.12,1.19,1.04,1.04,1.13
LC-2-ad,0.699,0.7,0.666,0.675,0.522,0.922,0.829,0.854,0.851,0.78,0.724,0.746,0.659,0.728,0.594,0.767,0.667,0.704,0.712,0.63
H3255,0.567,0.643,0.522,0.531,0.434,1.08,0.917,0.852,0.832,0.734,0.777,0.815,0.776,0.72,0.572,0.821,0.865,0.842,0.817,0.794
